# According to patent US20100286058A1, “Assessing Chemotherapy Resistance of Colorectal Tumors by Determining Sparc Hypermethylation” (priority 2007, published 2010):
# Values joined by “and” are separate entries in the source; they are usually repeats but may differ in a detail not shown here. Equal values may be shown once. “Also recorded” adds a separate entry of the source.
# How the values were obtained:
# MIP 101 cells = experiment: Cell viability (WST-1); type: cell-based; conditions: 24 h, read-out: viable cells
# Procedure: (§1) Human colorectal cancer (CRC) cell lines, MIP 101, RKO, HCT116 and HT29 (ATCC), and a normal colon cell line CCD 112CON (ATCC), were maintained in DMEM supplemented with 10% fetal bovine serum; 1% Kanamycin, Streptomycin, Penicillin; and incubated at 37° C. and 5% CO2. To determine the effect of reversing the methylation status of SPARC, a demethylating agent (5-Aza-2′deoxycytidine, “5-Aza”) was added to the culture media at a final concentration of 4 μm for a period of 7 days with medium changes on day 4, before assessing its effect on cell viability (WST-1), apoptosis (Caspase 3/7 and TUNEL) and cell proliferation.
# Cell viability was evaluated using WST-1 (Roche) following the manufacturer's instructions. Cells exposed to 5-Aza for a period of 7 days (and untreated controls) were seeded at 10,000 cells per well in triplicate into a 96-well plate. Twelve hours later, 5-Fluorouracil (5-FU) was added to a final concentration of 0, 500 or 1,000 μM for an additional 24 h. WST reagent was added to each well and incubated at 37° C. after which plates were read at 60 min at 440 nm. Three independent experiments were analyzed. The significance of differences were determined using Student's t-test (P<0.05).
# [1] = biological target: T1, interaction between Dnmtl and the SPARC promoter (Homo sapiens, UniProt P26358); experiment: Chromatin immunoprecipitation (ChIP) assay; type: cell-based; conditions: all CRC cell lines, following exposure to 5-Aza
# T1 construct: endogenous in cells
# Procedure: To evaluate the effect of 5-Aza exposure on the interaction between Dnmtl (a DNA methyltranferase) with the promoter region of SPARC, a ChIP assay was performed using a ChIP kit (Epigentek) as per the manufacturer's instructions. Cells were fixed with formaldehyde for protein/DNA crosslinking and lysed. The DNA was sheared by sonication (10 pulses, […]) and added to a well coated with the antibody to the protein of interest (anti-Dnmtl, cat. #A-1001, Epigentek). Washes were performed to remove unbound material, while Dnmtl-bound DNA was released by protein digestion with proteinase K. The DNA was purified through a column and PCR was performed using primers designed to target the SPARC promoter region.
# SPARC [2] = experiment: RT-PCR of SPARC mRNA; type: cell-based, Human; conditions: MIP101 cells exposed to 5-Aza
# Source text: This technique is based on bisulfite treatment of the DNA, which modifies cytosines to uracil except when they are methylated (5-methylcytosine), followed by PCR. After bisulfite modification the DNA was amplified using methylation specific primers. Two primer sets, previously described, were used to target the CpG island located in the putative promoter region of the SPARC gene, and are referred as MSP1 and MSP2. Primers targeting INK4A(p16) were used as control. […] For RT-PCR, mRNA isolated from CRC cell lines were extracted using Trizol (Invitrogen). Primers to amplify SPARC, sense 5′-GGGAGGGCCTTGGCAG-3′ antisense 5′-GCACATGGGGGTGTTG-3′ and actin, sense 5′-GCCACGGCTGCTTCCAG-3′antisense 5′-GGCGTACAGGTCTTTGC-3′ were annealed at 49° C. in 45 cycles after reverse transcription for 1 hour at 50° C. Amplicons were separated in 2.5% agarose gel electrophoresis.
# SPARC promoter = experiment: Methylation specific PCR of CRC cell lines; type: cell-based, Human; conditions: 4 μM 5-Aza, 7 days in vitro; all four CRC cell lines (MIP101, RKO, HCT116, HT29)
# Procedure: as §1
# This technique is based on bisulfite treatment of the DNA, which modifies cytosines to uracil except when they are methylated (5-methylcytosine), followed by PCR. After bisulfite modification the DNA was amplified using methylation specific primers. Two primer sets, previously described, were used to target the CpG island located in the putative promoter region of the SPARC gene, and are referred as MSP1 and MSP2. Primers targeting INK4A(p16) were used as control. […] For RT-PCR, mRNA isolated from CRC cell lines were extracted using Trizol (Invitrogen). […]
# INK4A(p16) promoter = experiment: Methylation specific PCR of CRC cell lines (control promoter); type: cell-based, Human; conditions: 4 μM 5-Aza, 7 days in vitro; all four CRC cell lines
# SPARC [3] = experiment: Western blot of SPARC protein; type: cell-based, Human; conditions: MIP101 cells (printed MW101) exposed to 5-Aza
# MIP101 cells = experiment: Cell proliferation (cell counts); type: cell-based, Human
# Procedure: as §1
# (§2) To determine the rate of cell proliferation, cells exposed to 5-Aza for 7 days (and untreated controls) were seeded at 20,000 cells/well into a 48-well plate. Cells were counted from duplicate wells at 24, 48 and 72 h. The effect of 5-FU exposure for 24 hour-period on cell proliferation in the presence or absence of 5-Aza was also determined. We performed two independent experiments.
# HCT 116 cells = experiment: Cell proliferation (cell counts); type: cell-based, Human; conditions: incubated with 5-Aza, most noticeable after 2-days
# Procedure: as §1, §2
# RKO cells = experiment: Cell proliferation (cell counts); type: cell-based, Human
# Procedure: as §1, §2
# HT29 cells = experiment: Cell proliferation (cell counts); type: cell-based, Human; conditions: incubated with 5-Aza, most noticeable after 2-days
# Procedure: as §1, §2
# T1 sequence (P26358 whole entry): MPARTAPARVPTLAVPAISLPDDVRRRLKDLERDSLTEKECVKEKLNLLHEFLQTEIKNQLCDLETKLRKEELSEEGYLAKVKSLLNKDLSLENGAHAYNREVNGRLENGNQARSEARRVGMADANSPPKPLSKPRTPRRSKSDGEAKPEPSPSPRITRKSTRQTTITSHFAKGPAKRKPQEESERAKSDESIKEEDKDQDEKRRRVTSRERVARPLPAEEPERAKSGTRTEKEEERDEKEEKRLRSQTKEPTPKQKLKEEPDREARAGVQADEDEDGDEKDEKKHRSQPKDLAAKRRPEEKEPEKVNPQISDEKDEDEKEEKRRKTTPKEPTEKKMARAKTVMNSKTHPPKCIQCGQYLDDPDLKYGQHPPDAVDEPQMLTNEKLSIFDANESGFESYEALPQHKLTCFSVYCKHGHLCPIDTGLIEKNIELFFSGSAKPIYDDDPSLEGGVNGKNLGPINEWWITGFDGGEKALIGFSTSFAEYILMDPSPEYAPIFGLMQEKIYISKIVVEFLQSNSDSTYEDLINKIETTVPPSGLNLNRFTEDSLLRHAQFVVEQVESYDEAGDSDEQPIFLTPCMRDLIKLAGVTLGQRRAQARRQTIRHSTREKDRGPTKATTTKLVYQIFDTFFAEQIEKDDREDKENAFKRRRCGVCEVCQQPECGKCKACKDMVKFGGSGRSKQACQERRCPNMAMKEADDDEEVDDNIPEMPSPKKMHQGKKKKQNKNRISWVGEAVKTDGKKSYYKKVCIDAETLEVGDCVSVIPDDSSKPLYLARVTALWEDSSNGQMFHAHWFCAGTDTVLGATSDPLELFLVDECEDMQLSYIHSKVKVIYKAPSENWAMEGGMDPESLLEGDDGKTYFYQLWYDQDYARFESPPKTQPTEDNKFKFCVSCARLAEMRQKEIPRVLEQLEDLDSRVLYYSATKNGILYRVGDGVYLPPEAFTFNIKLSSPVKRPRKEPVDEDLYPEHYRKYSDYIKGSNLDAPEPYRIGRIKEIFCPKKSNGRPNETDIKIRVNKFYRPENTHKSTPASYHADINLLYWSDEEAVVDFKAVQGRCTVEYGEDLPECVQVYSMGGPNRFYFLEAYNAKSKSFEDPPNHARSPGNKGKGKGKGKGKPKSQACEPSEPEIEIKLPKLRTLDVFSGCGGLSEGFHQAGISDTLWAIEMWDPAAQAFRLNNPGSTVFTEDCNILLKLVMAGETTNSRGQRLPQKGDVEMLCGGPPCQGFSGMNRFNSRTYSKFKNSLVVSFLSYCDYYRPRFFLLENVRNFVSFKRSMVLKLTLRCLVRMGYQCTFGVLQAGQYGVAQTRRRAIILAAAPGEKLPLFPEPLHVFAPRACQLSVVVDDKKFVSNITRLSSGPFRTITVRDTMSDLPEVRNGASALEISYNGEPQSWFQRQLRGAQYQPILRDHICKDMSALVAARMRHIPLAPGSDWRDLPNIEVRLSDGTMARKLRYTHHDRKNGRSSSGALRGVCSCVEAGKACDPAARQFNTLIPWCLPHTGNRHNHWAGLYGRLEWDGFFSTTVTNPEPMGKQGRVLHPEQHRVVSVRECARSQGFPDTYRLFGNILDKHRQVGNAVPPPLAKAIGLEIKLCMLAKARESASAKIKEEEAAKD
SMILES,"viability at 500 µM (MIP 101 cells; Homo sapiens, 500 μM 5-FU only)","viability at 1000 µM (MIP 101 cells; Homo sapiens, 1,000 μM 5-FU only)",interaction between the SPARC promoter and Dnmtl (ChIP) [1],SPARC RNA expression (RT-PCR) (SPARC [2]),methylation status in the MSP1 and MSP2 regions of the SPARC promoter (SPARC promoter),methylation status of the INK4A(p16) promoter (INK4A(p16) promoter),SPARC protein expression (Western blot) (SPARC [3]),increase in cell doubling time (MIP101 cells; 4 μM 5-Aza vs control),doubling time (MIP101 cells; incubation with 4 μM 5-Aza (control 0.8 days)),cell proliferation (HCT 116 cells),increase in cell doubling time (RKO cells; 4 μM 5-Aza vs control),doubling time (RKO cells; incubation with 4 μM 5-Aza (control 0.7 days)),cell proliferation (HT29 cells)
"O=c1[nH]cc(F)c(=O)[nH]1 [5-FU, 5-Fluorouracil]",87.7%,82.7%,–,–,–,–,–,–,–,–,–,–,–
"Nc1ncn([C@H]2C[C@H](O)[C@@H](CO)O2)c(=O)n1 [5-Aza, 5-Aza-2′deoxycytidine]",–,–,no longer observed,higher SPARC expression; also recorded: reactivation of SPARC RNA and protein expression,change in the methylation status,change in the methylation status,reactivation of SPARC RNA and protein expression,3 fold,2.4 days,less dramatic yet significant decrease in cell proliferation,2.4 fold and 2.43 fold,1.7 days,less dramatic yet significant decrease in cell proliferation
